The target of the experiment is enkephalinase. The experiment is described as follows: in vitro assay of the enkephalinase-inhibitory activity (J. Pharmac. Exp. Ther., 1987, 243, 666). In kind it is biochemical. How it is done:
An assay of the enkephalinase-inhibitory activity (J. Pharmac. Exp. Ther., 1987, 243, 666) of the compounds of formulae (Ia) and (Ib) was performed.

[1] abbreviates: (E) isomer, read-out: (E) Isomer IC50.

Read-outs that look alike come from different tables or passages of the source.

For orientation: IC50 means the midpoint of a concentration-inhibition curve. On to `CC(CC(=O)O)NC(=O)/C(=C\c1ccccc1)CS` (racemic) [Ex 12, 3-(RS)-N-(E)-[1-oxo-2-(mercaptomethyl)-3-phenylpropenyl]aminobutanoic acid], for which, under setting [1], the IC50 was determined as 7 nM.
Consider `CC(CNC(=O)/C(=C\c1ccccc1)CS)C(=O)O` (racemic) [Ex 14], for which the IC50 under setting [1] was 10 nM.
Still for that read-out and setting: the value for `O=C(O)CCNC(=O)/C(=C\c1ccccc1)CS` [Ex 4, N-(E)-[1-oxo-2-(mercaptomethyl)-3-phenylpropenyl]-β-alanine] was 2.8 nM; that for `O=C(O)CCCNC(=O)/C(=C\c1ccccc1)CS` [Ex 16, 4-N-(E)-[1-oxo-2-(mercaptomethyl)-3-phenylpropenyl]aminobutanoic acid] was 6.4 nM; that for `COc1ccc(/C=C(/CS)C(=O)NCCC(=O)O)cc1` [Ex 19, N-(E)-[1-oxo-2-(mercaptomethyl)-3-(4-methoxyphenyl)propenyl]-β-alanin] was 2.7 nM.
`O=C(O)CCNC(=O)/C(=C\c1ccc(C(F)(F)F)cc1)CS` [Ex 22, N-(E)-[1-oxo-2-(mercaptomethyl)-3-(4-trifluoromethylphenyl)propenyl]-β-alanine]: under setting [1], the IC50 was 12.1 nM.
Turning to `O=C(O)CCNC(=O)/C(=C\c1ccc(-c2ccccc2)cc1)CS` [Ex 25, N-(E)-[1-oxo-2-(mercaptomethyl)-3-(4-phenylphenyl)propenyl]-β-alanine], under setting [1], the IC50 came to 7.5 nM.
The same measure, in the same setting: the value for `CCOc1ccc(/C=C(/CS)C(=O)NCCC(=O)O)cc1` [Ex 28, N-(E)-[1-oxo-2-(mercaptomethyl)-3-(4-ethoxyphenyl)propenyl]-β-alanine] was 11.8 nM; that for `O=C(O)CCNC(=O)/C(=C\c1cc(F)cc(F)c1)CS` [Ex 33, N-(E)-[1-oxo-2-(mercaptomethyl)-3-(3,5-difluorophenyl)propenyl]-β-alanine] was 5.9 nM.
Regarding `O=C(O)CCNC(=O)/C(=C/c1ccccc1)CS` [Ex 38, N-(Z)-[1-oxo-2-(mercaptomethyl)-3-phenylpropenyl]-β-alanine], the IC50 ((Z) isomer, read-out: (Z) Isomer IC50) was 171 nM.
As for `O=C(O)CCNC(=O)/C(=C\c1ccc(Oc2ccccc2)cc1)CS` [Ex 41, N-(E)-[1-oxo-2-(mercaptomethyl)-3-(4-phenoxyphenyl)propenyl]-β-alanine], the IC50 under setting [1] was 5.8 nM.
Turning to `CC(=O)SC/C(=C/c1ccc2c(c1)OCO2)C(=O)NCCC(=O)OCc1ccccc1` [Ex 43, benzyl N-(E)-[1-oxo-2-(acetylthiomethyl)-3-(3,4-methylenedioxyphenyl)propenyl]-β-alaninate], the IC50 under setting [1] is 19 nM.
